Measured values taken from ChEMBL document CHEMBL4610066, “Phytol, a Chlorophyll Component, Produces Antihyperalgesic, Anti-inflammatory, and Antiarthritic Effects: Possible NFκB Pathway Involvement and Reduced Levels of the Proinflammatory Cytokines TNF-α and IL-6” (J Nat Prod, 2020).
Active and inactive are the calls of the source.

Experiments:
[1] = tested on: Mus musculus; experiment: Antiinflammatory activity in complete freund's adjuvant-induced albino Swiss mouse model of arthritis assessed as reduction in TNFalpha production in synovial fluid at 50 mg/kg, po pretreated for 1 hr followed by CFA stimulation and measured after 3 days; assay type: functional, organism-based
[2] = tested on: Mus musculus; experiment: Analgesic activity in complete freund's adjuvant-induced albino Swiss mouse model of hyperalgesia assessed as increase in paw withdrawal threshold at 50 mg/kg, po administered daily and measured every other for 10 days and on day 21 and 28; assay type: functional, organism-based
[3] = tested on: Mus musculus; experiment: Analgesic activity in albino Swiss mouse assessed as increase in reaction time at 25 mg/kg, po measured after 120 to 240 mins by hot plate test; assay type: functional, organism-based
[4] = tested on: Mus musculus; experiment: Effect on ERK1/2 signaling in complete freund's adjuvant-induced albino Swiss mouse model of arthritis at 50 mg/kg, po pretreated for 1 hr followed by CFA stimulation and measured after 3 days by Western blot analysis; assay type: functional, organism-based
[5] = tested on: Mus musculus; experiment: Antiinflammatory activity in complete freund's adjuvant-induced albino Swiss mouse model of arthritis assessed as reduction in MPO activity in synovial fluid at 50 mg/kg, po pretreated for 1 hr followed by CFA stimulation and measured after 3 days; assay type: functional, organism-based
[6] = tested on: Mus musculus; experiment: Analgesic activity in albino Swiss mouse assessed as increase in reaction time at 25 mg/kg, po measured after 60 to 90 mins by hot plate test; assay type: functional, organism-based
[7] = tested on: Mus musculus; experiment: Antiinflammatory activity in complete freund's adjuvant-induced albino Swiss mouse model of arthritis assessed as reduction in IL10 production in synovial fluid at 50 mg/kg, po pretreated for 1 hr followed by CFA stimulation and measured after 3 days; assay type: functional, organism-based
[8] = Neurotoxicity in complete freund's adjuvant-induced albino Swiss mouse model of arthritis assessed as induction of myorelaxant effect by measuring change in muscle force at 50 mg/kg, po pretreated for 1 hr followed by CFA stimulation and measured every other day for 10 days by grip strength meter method; assay type: toxicity, organism-based; conditions: in vivo, 240 h
[9] = tested on: Mus musculus; experiment: (§1) Antiinflammatory activity in complete freund's adjuvant-induced albino Swiss mouse model of arthritis assessed as reduction in COX2 production in spinal cord at 50 mg/kg, po pretreated for 1 hr followed by CFA stimulation and measured after 3 days by Western blot analysis; assay type: functional, organism-based
[10] = tested on: Mus musculus; experiment: as §1, with “In vivo inhibition of MAPK pathway” for “Antiinflammatory activity”, “phosphorylated p38 MAPK to total p38 MAPK ratio” for “COX2 production”; assay type: functional, organism-based
[11] = tested on: Mus musculus; experiment: Antiinflammatory activity in complete freund's adjuvant-induced albino Swiss mouse model of arthritis assessed as reduction in IL6 production in synovial fluid at 50 mg/kg, po pretreated for 1 hr followed by CFA stimulation and measured after 3 days; assay type: functional, organism-based
[12] = tested on: Mus musculus; experiment: Antiinflammatory activity in complete freund's adjuvant-induced albino Swiss mouse model of arthritis assessed as reduction in paw volume at 25 to 50 mg/kg, po pretreated for 1 hr followed by CFA stimulation and measured after 2 hrs by plethysmometric method; assay type: functional, organism-based
[13] = tested on: Mus musculus; experiment: Antiinflammatory activity in complete freund's adjuvant-induced albino Swiss mouse model of arthritis assessed as reduction in paw edema at 50 mg/kg, po pretreated for 1 hr followed by CFA stimulation and measured up to 6 hrs by plethysmometric method relative to control; assay type: functional; design: scale not given: the % may be the effect or the level left
[14] = tested on: Mus musculus; experiment: Antiinflammatory activity in complete freund's adjuvant-induced albino Swiss mouse model of arthritis assessed as reduction in IL6 production in spinal cord at 50 mg/kg, po pretreated for 1 hr followed by CFA stimulation and measured after 3 days; assay type: functional, organism-based
[15] = tested on: Mus musculus; experiment: Antiinflammatory activity in complete freund's adjuvant-induced albino Swiss mouse model of arthritis assessed as reduction in paw edema AUC at 25 mg/kg, po pretreated for 1 hr followed by CFA stimulation and measured up to 6 hrs by plethysmometric method relative to control; assay type: functional; design: scale not given: the % may be the effect or the level left
[16] = tested on: Mus musculus; experiment: In vivo inhibition of NFkappaB phosphorylation at ser536 residue in complete freund's adjuvant-induced albino Swiss mouse model of arthritis at 50 mg/kg, po pretreated for 1 hr followed by CFA stimulation and measured after 3 days by Western blot analysis; assay type: functional, organism-based
[17] = tested on: Mus musculus; experiment: Analgesic activity in complete freund's adjuvant-induced albino Swiss mouse model of hyperalgesia assessed as increase in paw withdrawal threshold at 50 mg/kg, po pretreated for 1 hr followed by CFA stimulation and measured after 7 hrs by analgesimetric method; assay type: functional, organism-based
[18] = tested on: Mus musculus; experiment: Analgesic activity in albino Swiss mouse assessed as increase in reaction time at 50 mg/kg, po measured after 60 to 240 mins by hot plate test; assay type: functional, organism-based
[19] = tested on: Mus musculus; experiment: Analgesic activity in formalin-induced albino Swiss mouse model of nociception assessed as reduction in time spent in paw licking during neurogenic phase at 50 mg/kg, po pretreated for 1 hr followed by formalin stimulation and measured up to 5 mins by formalin test; assay type: functional, organism-based
[20] = tested on: Mus musculus; experiment: Analgesic activity in formalin-induced albino Swiss mouse model of nociception assessed as reduction in time spent in paw licking during inflammatory phase at 25 to 50 mg/kg, po pretreated for 1 hr followed by formalin stimulation and measured after 15 to 30 mins by formalin test; assay type: functional, organism-based
[21] = tested on: Mus musculus; experiment: Antiinflammatory activity in complete freund's adjuvant-induced albino Swiss mouse model of arthritis assessed as suppression of CFA-induced increase in total NFkappaB level at 50 mg/kg, po pretreated for 1 hr followed by CFA stimulation and measured after 3 days by Western blot analysis; assay type: functional, organism-based
[22] = tested on: Mus musculus; experiment: Antiinflammatory activity in complete freund's adjuvant-induced albino Swiss mouse model of arthritis assessed as reduction in leukocyte content in synovial fluid at 50 mg/kg, po pretreated for 1 hr followed by CFA stimulation and measured after 3 days; assay type: functional, organism-based
[23] = Neurotoxicity in complete freund's adjuvant-induced albino Swiss mouse model of arthritis assessed as motor coordination impairment at 50 mg/kg, po pretreated for 1 hr followed by CFA stimulation and measured up to 240 mins by rotarod test; assay type: toxicity, organism-based; conditions: in vivo, 4 h
[24] = tested on: Mus musculus; experiment: Antiinflammatory activity in complete freund's adjuvant-induced albino Swiss mouse model of arthritis assessed as reduction in joint swelling at 50 mg/kg, po administered once daily for 10 days measured every other day during compound dosing; assay type: functional, organism-based
[25] = tested on: Mus musculus; experiment: Antiinflammatory activity in complete freund's adjuvant-induced albino Swiss mouse model of arthritis assessed as reduction in edema AUC at 50 mg/kg, po administered once daily for 10 days measured every other day during compound dosing relative to control; assay type: functional; design: scale not given: the % may be the effect or the level left
[26] = tested on: Mus musculus; experiment: Antiinflammatory activity in complete freund's adjuvant-induced albino Swiss mouse model of arthritis assessed as reduction in paw edema AUC at 50 mg/kg, po pretreated for 1 hr followed by CFA stimulation and measured up to 6 hrs by plethysmometric method relative to control; assay type: functional; design: scale not given: the % may be the effect or the level left

Which Activity [1] does the source give for `C/C(=C\CO)CCC[C@H](C)CCC[C@H](C)CCCC(C)C` [TRANS-PHYTOL] here?
The Activity was “Active”.

What about the Activity [2] of the same compound?
Its Activity is “Active”.

What about the Activity [3] of the same compound?
The Activity was “inactive”.

And the Activity [4]?
Its Activity is “inactive”.

What about the Activity [5] of the same compound?
The Activity was “Active”.

What about the Activity [6] of the same compound?
Its Activity is “Active”.

And the Activity [7]?
The Activity was “inactive”.

What about the Activity [8] of the same compound?
Its Activity is “Non-Toxic”.

And the Activity [9]?
Its Activity is “Active”.

And the inhibition [10]?
The inhibition was “Active”.

And the Activity [11]?
The Activity was “Active”.

And the Activity [12]?
The Activity was “Active”.

And the Activity [13]?
Its Activity is 45%.

What about the Activity [14] of the same compound?
Its Activity is “Active”.

What about the Activity [15] of the same compound?
The Activity was 18%.

And the inhibition [16]?
Its inhibition is “Active”.

What about the Activity [17] of the same compound?
Its Activity is “Active”.

And the Activity [18]?
Its Activity is “Active”.

And the Activity [19]?
The Activity was “Active”.

And the Activity [20]?
The Activity was “Active”.

And the Activity [21]?
The Activity was “Active”.

And the Activity [22]?
The Activity was “Active”.

What about the Activity [23] of the same compound?
Its Activity is “Non-Toxic”.

What about the Activity [24] of the same compound?
The Activity was “Active”.

And the Activity [25]?
Its Activity is 46%.

What about the Activity [26] of the same compound?
Its Activity is 45%.
